Columns and labels:
[1] = Octanol-water partition coefficient, log D of the compound by chromatographic method; format: physicochemical
[2] = Oral bioavailability in cynomolgus monkey at 3 mg/kg by LC-MS/MS analysis; format: ADME, organism-based, Macaca fascicularis; conditions: in vivo
[3] = AUC (0 to infinity) in CD-1 mouse at 3 mg/kg,po by LC-MS/MS analysis; format: ADME, organism-based; design: dose 3 mg/kg, route po; conditions: in vivo
[4] = AUC (0 to infinity) in CD-1 mouse at 1 mg/kg,iv by LC-MS/MS analysis; format: ADME, organism-based; design: dose 1 mg/kg, route iv; conditions: in vivo
[5] = Cmax in CD-1 mouse at 3 mg/kg,po by LC-MS/MS analysis; format: ADME, organism-based; design: dose 3 mg/kg, route po; conditions: in vivo
[6] = Terminal brain concentration in Sprague-Dawley rat model of amphetamine-induced hyperlocomotion activity at 10 mg/kg, po measured after 2 hrs by LC-MS/MS analysis; format: ADME, organism-based; conditions: read-out: Clast
[7] = Volume of distribution at steady state in Sprague-Dawley rat at 1 mg/kg,iv by LC-MS/MS analysis; format: ADME, organism-based; conditions: in vivo, read-out: Vdss
[8] = Clearance in cynomolgus monkey plasma at 1 mg/kg,iv by LC-MS/MS analysis; format: ADME, organism-based, Macaca fascicularis
[9] = Lipophilicity, logP of the compound by shake flask assay; format: physicochemical; conditions: octanol/water
[10] = Clearance in Sprague-Dawley rat plasma at 1 mg/kg,iv by LC-MS/MS analysis; format: ADME, organism-based
[11] = Oral bioavailability in Sprague-Dawley rat at 3 mg/kg by LC-MS/MS analysis; format: ADME, organism-based; conditions: in vivo
[12] = Oral bioavailability in CD-1 mouse at 3 mg/kg by LC-MS/MS analysis; format: ADME, organism-based; conditions: in vivo
[13] = Half life in cynomolgus monkey at 1 mg/kg,iv by LC-MS/MS analysis; format: ADME, organism-based, Macaca fascicularis; conditions: in vivo
[14] = Metabolic stability in rat liver microsomes assessed as intrinsic clearance preincubation with compound followed by NADPH addition and measured after 45 mins by LC-MS/MS analysis; format: ADME, Microsome; conditions: read-out: CLH
[15] = AUC (0 to infinity) in Sprague-Dawley rat at 3 mg/kg,po by LC-MS/MS analysis; format: ADME, organism-based; design: dose 3 mg/kg, route po; conditions: in vivo
[16] = Oral absorption in cynomolgus monkey at 3 mg/kg by LC-MS/MS analysis; format: ADME, organism-based, Macaca fascicularis; conditions: in vivo, read-out: Drug absorption
[17] = Terminal free brain concentration in Sprague-Dawley rat model of amphetamine-induced hyperlocomotion activity at 10 mg/kg, po measured after 2 hrs by LC-MS/MS analysis; format: ADME, organism-based; conditions: in vivo
[18] = AUC (0 to infinity) in Sprague-Dawley rat at 1 mg/kg,iv by LC-MS/MS analysis; format: ADME, organism-based; design: dose 1 mg/kg, route iv; conditions: in vivo
[19] = Oral absorption in CD-1 mouse at 3 mg/kg by LC-MS/MS analysis; format: ADME, organism-based; conditions: in vivo
[20] = AUC (0 to infinity) in cynomolgus monkey at 3 mg/kg,po by LC-MS/MS analysis; format: ADME, organism-based, Macaca fascicularis; design: dose 3 mg/kg, route po; conditions: in vivo
[21] = Half life in Sprague-Dawley rat at 1 mg/kg,iv by LC-MS/MS analysis; format: ADME, organism-based; conditions: in vivo
[22] = Volume of distribution at steady state in CD-1 mouse at 1 mg/kg,iv by LC-MS/MS analysis; format: ADME, organism-based; conditions: in vivo, read-out: Vdss
[23] = AUC (0 to infinity) in cynomolgus monkey at 1 mg/kg,iv by LC-MS/MS analysis; format: ADME, organism-based, Macaca fascicularis; design: dose 1 mg/kg, route iv; conditions: in vivo
[24] = Half life in CD-1 mouse at 1 mg/kg,iv by LC-MS/MS analysis; format: ADME, organism-based; conditions: in vivo
[25] = Cmax in Sprague-Dawley rat at 3 mg/kg,po by LC-MS/MS analysis; format: ADME, organism-based; design: dose 3 mg/kg, route po; conditions: in vivo
[26] = Oral absorption in Sprague-Dawley rat at 3 mg/kg by LC-MS/MS analysis; format: ADME, organism-based; conditions: in vivo
[27] = Volume of distribution at steady state in cynomolgus monkey at 1 mg/kg,iv by LC-MS/MS analysis; format: ADME, organism-based, Macaca fascicularis; conditions: in vivo, read-out: Vdss
[28] = Cmax in cynomolgus monkey at 3 mg/kg,po by LC-MS/MS analysis; format: ADME, organism-based, Macaca fascicularis; design: dose 3 mg/kg, route po; conditions: in vivo
[29] = Apparent permeability of compound across apical to basolateral side in dog MDCK-MDR1 cells incubated for 1 hr by LC-MS/MS analysis; format: ADME, cell-based, Canis lupus familiaris
[30] = Unbound brain-to-plasma concentration ratio in Sprague-Dawley rat plasma at 1 mg/kg,iv by LC-MS/MS analysis; format: ADME, organism-based; conditions: brain and plasma, read-out: K(p,uu,brain)
[31] = Clearance in CD-1 mouse plasma at 1 mg/kg,iv by LC-MS/MS analysis; format: ADME, organism-based
[32] = Metabolic stability in human liver microsomes assessed as intrinsic clearance preincubation with compound followed by NADPH addition and measured after 45 mins by LC-MS/MS analysis; format: ADME, Microsome; conditions: read-out: CLH

O=C1NCCc2nn(-c3ccnc(Cc4cc(F)cc(C(F)(F)F)c4)c3)cc21
chromatographic logD [1]: 4.4

O=C1NCCc2c1cnn2-c1ccnc(Cc2cc(F)cc(C(F)(F)F)c2)c1
F [2]: 81%
AUC(0-inf) [3]: 5910 ng·h/mL
AUC(0-inf) [4]: 2610 ng·h/mL
Cmax [5]: 486 ng/mL
chromatographic logD [1]: 3.9
concentration at 2 h [6]: 1560 nM
Vd [7]: 1 L/kg
clearance [8]: 2 mL/min/kg
logP [9]: 4.2
clearance [10]: 16 mL/min/kg
bioavailability [11]: 40%
bioavailability [12]: 95%
half-life [13]: 8 h
microsomal CLint [14]: 25 µL/min/mg
AUC(0-inf) [15]: 1260 ng·h/mL
Fa [16]: 85%
Drug uptake(free) [17]: 41.2 nM
AUC(0-inf) [18]: 1020 ng·h/mL
Fa [19]: 80%
AUC [20]: 6327 ng·h/mL
half-life [21]: 0.8 h
Vd [22]: 1.5 L/kg
AUC [23]: 7854 ng·h/mL
half-life [24]: 3.4 h
Cmax [25]: 285 ng/mL
Fa [26]: 52%
Vd [27]: 1.4 L/kg
Cmax [28]: 581 ng/mL
Papp A→B at 1 h [29]: 48 ×10⁻⁶ cm/s
Kp uu [30]: 0.35
clearance [31]: 6 mL/min/kg
microsomal CLint [32]: 11 µL/min/mg

O=C1NCCc2c1cnn2-c1ccnc(Cc2cc(F)c(Cl)c(C(F)(F)F)c2)c1
chromatographic logD [1]: 4.6
microsomal CLint [14]: 57 µL/min/mg
microsomal CLint [32]: 24 µL/min/mg

O=C1NCCCc2c1cnn2-c1ccnc(Cc2cc(F)cc(C(F)(F)F)c2)c1
chromatographic logD [1]: 4.2
microsomal CLint [14]: 102 µL/min/mg
microsomal CLint [32]: 21 µL/min/mg

O=C1NCCc2c1cnn2-c1ccnc(Cc2cc(F)cc(C(F)F)c2)c1
chromatographic logD [1]: 3.3
microsomal CLint [14]: 37 µL/min/mg
Papp A→B at 1 h [29]: 30 ×10⁻⁶ cm/s
microsomal CLint [32]: 15 µL/min/mg

CN1CCc2c(cnn2-c2cc(Cc3cc(F)cc(C(F)(F)F)c3)ccn2)C1=O
chromatographic logD [1]: 5.8
microsomal CLint [14]: 33 µL/min/mg
Papp A→B at 1 h [29]: 30 ×10⁻⁶ cm/s
microsomal CLint [32]: 62 µL/min/mg

Cc1nn(-c2cncc(Cc3cc(F)cc(C(F)(F)F)c3)c2)c2c1C(=O)NCC2
chromatographic logD [1]: 4.1
microsomal CLint [14]: 63 µL/min/mg
Papp A→B at 1 h [29]: 48 ×10⁻⁶ cm/s
microsomal CLint [32]: 27 µL/min/mg

O=C1NCCc2c1cnn2-c1cc(Cc2cc(F)cc(C(F)(F)F)c2)ccn1
chromatographic logD [1]: 5.1
logP [9]: 3.1
microsomal CLint [14]: 30 µL/min/mg
Papp A→B at 1 h [29]: 32 ×10⁻⁶ cm/s
microsomal CLint [32]: 15 µL/min/mg

Cc1nn(-c2ccnc(Cc3cc(F)cc(OC(F)F)c3)c2)c2c1C(=O)NCC2
chromatographic logD [1]: 3.9
microsomal CLint [14]: 63 µL/min/mg
Papp A→B at 1 h [29]: 32 ×10⁻⁶ cm/s
microsomal CLint [32]: 34 µL/min/mg

Cc1nn(-c2ccnc(Cc3cc(F)cc(C(F)(F)F)c3)c2)c2c1C(=O)NCC2
chromatographic logD [1]: 4.4
microsomal CLint [14]: 40 µL/min/mg
Papp A→B at 1 h [29]: 46 ×10⁻⁶ cm/s
microsomal CLint [32]: 31 µL/min/mg

O=C1NCc2c1cnn2-c1ccnc(Cc2cc(F)cc(C(F)(F)F)c2)c1
chromatographic logD [1]: 4

O=C1NCCc2c1nnn2-c1ccnc(Cc2cc(F)cc(C(F)(F)F)c2)c1
chromatographic logD [1]: 4

Cc1nn(-c2ccnc(Cc3cc(F)cc(C(F)F)c3)c2)c2c1C(=O)NCC2
chromatographic logD [1]: 3.6
microsomal CLint [14]: 71 µL/min/mg
Papp A→B at 1 h [29]: 28 ×10⁻⁶ cm/s
microsomal CLint [32]: 32 µL/min/mg

O=C1CCCc2c1cnn2-c1cc(Cc2cccc(C(F)(F)F)c2)ccn1
chromatographic logD [1]: 6.7
microsomal CLint [14]: 120 µL/min/mg
Papp A→B at 1 h [29]: 25 ×10⁻⁶ cm/s
microsomal CLint [32]: 50 µL/min/mg

O=C1NCCc2c1cnn2-c1cc(Cc2cccc(C(F)(F)F)c2)ccn1
chromatographic logD [1]: 4.9
Vd [7]: 1.5 L/kg
clearance [10]: 39 mL/min/kg
bioavailability [11]: 54%
microsomal CLint [14]: 46 µL/min/mg
AUC(0-inf) [15]: 709 ng·h/mL
AUC(0-inf) [18]: 440 ng·h/mL
half-life [21]: 0.6 h
Cmax [25]: 143 ng/mL
Fa [26]: > 100%
Papp A→B at 1 h [29]: 46 ×10⁻⁶ cm/s
Kp uu [30]: 0.4
microsomal CLint [32]: < 10 µL/min/mg

O=C1NCCc2c1cnn2-c1cncc(Cc2cc(F)cc(C(F)(F)F)c2)c1
chromatographic logD [1]: 3.8
logP [9]: 4
microsomal CLint [14]: 25 µL/min/mg
Papp A→B at 1 h [29]: 38 ×10⁻⁶ cm/s
microsomal CLint [32]: < 10 µL/min/mg

O=C1NCCc2c1cnn2-c1cccc(Cc2cc(F)cc(C(F)(F)F)c2)c1
chromatographic logD [1]: 5
microsomal CLint [14]: 48 µL/min/mg
microsomal CLint [32]: < 10 µL/min/mg
